In patent US11834453B2, “Substituted pyrimido[5,4-d]pyrimidines as HER2 inhibitors” (Array BioPharma Inc., priority 2020, dated 2023):
Like-named read-outs stand apart in the source and are kept apart here.

How the values were obtained:
[1] = target: ErbB2 insYVMA (HER2-YVMA, SEQ ID NO: 2) (Homo sapiens, UniProt P04626, INS775YVMA/P1170A); assay: biochemical; conditions: ErbB2 insYVMA enzyme assay
ErbB2 WT = ErbB2 WT (Homo sapiens (Human), UniProt P04626); assay: ErbB enzyme assay (CisBio HTRF KinEASE-TK), Assay 2; type: biochemical
Procedure, shortened: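 ErbB2 phosphorylates 250 nM biotin-TK substrate at 1 mM ATP in 25 mM HEPES pH 7.4, 10 mM MgCl2, 0.01% Triton X-100 and 2% DMSO, for 30 min at 22 °C. Product is detected by HTRF with Sa-XL665 and TK-Ab-Cryptate. Percent of control is set by DMSO-only wells and pre-quenched wells.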

EGFR = EGFR (Homo sapiens (Human), UniProt P00533); assay: ErbB enzyme assay (CisBio HTRF KinEASE-TK), Assay 3; type: biochemical
Procedure, shortened: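 Inhibition is measured as reduced peptide phosphorylation by HTRF KinEASE-TK at 1 mM ATP and 250 nM substrate, 30 min at 22 °C. Values are IC50s from a 4-parameter logistic fit.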

[2] = target: ErbB2 with Exon 20 YVMA insertion (HER2-YVMA) (Homo sapiens (Human), UniProt P04626, INS775YVMA); assay: Cellular phosphorylation assay, constitutive ErbB2 phosphorylation (Y1196) in engineered NIH 3T3 cells, Assay 4; type: cell-based
Procedure, shortened: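 Engineered NIH 3T3 cells expressing HER2-YVMA treated with compounds 1 h at 37 °C, then formaldehyde-fixed and methanol-permeabilized. pErbB2 Y1196 detected by in-cell infrared immunofluorescence, normalized to GAPDH. IC50 from the normalized curves.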

EGFR wild type (EGFR WT) = EGFR wild type (EGFR WT) (Homo sapiens (Human), UniProt P00533); assay: Cellular phosphorylation assay, EGF-stimulated EGFR phosphorylation in engineered NIH 3T3 cells, Phospho-EGFR DuoSet IC ELISA, Assay 5; type: cell-based
Procedure, shortened: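 NIH 3T3 cells expressing EGFR WT (20,000/well, attached overnight) were exposed to serially diluted compound for 1 h at 37 °C, then stimulated with 100 ng/ml rEGF for 10 min. Phospho-EGFR in lysates measured by sandwich ELISA optical density; IC50 from curves.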

MDR1 (P-gp) [3] = target: T1, MDR1 (P-gp) (Homo sapiens (Human), UniProt P08183); assay: MDR1 transfected MDCKII canine Mdr1 knockout permeability/efflux, Assay 7; conditions: dog, MDCK-MDR1
MDR1 (P-gp) [4] = target: T1, MDR1 (P-gp); assay: MDR1 transfected LLC-PK1 permeability/efflux, Assay 6; conditions: pig, LLC-PK1, Assay 6 Pe Ratio, efflux ratio Papp(B-A)/Papp(A-B), MDR1 transfected LLC-PK1
Procedure: Both MDR1 transfected LLC-PK1 (Assay 6) and MDR1 transfected MDCKII canine Mdr1 knockout cells (Assay 7) were cultured and plated according to manufacturer's recommendations with the exception that the passage media for the MDR1 transfected LLC-PK1 cell line contained only 2% fetal bovine serum so as to extend passage time out to seven days.
Both positive and negative controls were used to assess functionality of P-gp or BCRP efflux in the assays. Stock solutions for assay controls and the test article were prepared in DMSO for final test concentration of 1 μM. Final organic concentration in the assay was 1%. All dosing solutions contained 10 μM lucifer yellow to monitor MDCKII cell monolayer integrity.
For the apical to basolateral determination (A to B), 75 μL of the test article in transport buffer were added to the apical side of the individual transwells and 250 μL of basolateral media, without compound or lucifer yellow, were added to each well. For the basolateral to apical determination (B to A), 250 μL of test article in transport buffer were added to each well and 75 μL transport buffer, without compound or lucifer yellow, were added to each transwell. All tests were performed in triplicate, and each compound was tested for both apical to basolateral and basolateral to apical transport. The plates were incubated for 2 hours on a Lab-Line Instruments Titer Orbital Shaker (VWR, West Chester, PA) at 50 rpm and 37° C. with 5% CO2. All culture plates were removed from the incubator, 50 μL of media were removed from the apical and basolateral portion of each well, and added to 150 μL of 1 μM labetalol in 2:1 acetonitrile (ACN): H2O, v/v.
The plates were read using a Molecular Devices (Sunnyvale, CA) Gemini Fluorometer to evaluate the lucifer yellow concentrations at excitation/emission wavelengths of 425/535 nm. These values were accepted when found to be below 2% for apical to basolateral and 5% basolateral to apical flux across the MDR1-transfected LLC-PK1 or BCRP-transfected MDCKII cell monolayers. The plates were sealed, and the contents of each well analyzed by LC MS/MS. The compound concentrations were determined from the ratio of the peak areas of the compound to the internal standard (labetalol) in comparison to the dosing solution.
A MDS Sciex API 4000 (Applied Biosystems, Foster City, CA) mass spectrometer was used for detection of the analytes in the ion spray positive mode. Analyte responses were measured by multiple reaction monitoring (“MRM”) of transitions unique to each compound (the protonated precursor ion and selected product ions for each test article and m/z 329 to m/z 162 for labetalol, the internal standard.
The total run time, including re-equilibration, for a single injection was 1.2 minutes. […] The total run time, including re-equilibration, for a single injection was 0.61 minutes.
An efflux ratio is calculated from the mean apical to basolateral (A-B) Papp data and basolateral to apical (B-A) Papp data: Efflux ratio=Papp(B−A)/Papp(A−B)

BCRP = BCRP (Homo sapiens (Human), UniProt Q9UNQ0); assay: BCRP transfected MDCKII canine Mdr1 knockout permeability/efflux, Assay 9; conditions: dog, Assay 9 Pe Ratio, efflux ratio Papp(B-A)/Papp(A-B), BCRP transfected MDCKII canine Mdr1 knockout
Sequence of BCRP (Q9UNQ0 whole entry): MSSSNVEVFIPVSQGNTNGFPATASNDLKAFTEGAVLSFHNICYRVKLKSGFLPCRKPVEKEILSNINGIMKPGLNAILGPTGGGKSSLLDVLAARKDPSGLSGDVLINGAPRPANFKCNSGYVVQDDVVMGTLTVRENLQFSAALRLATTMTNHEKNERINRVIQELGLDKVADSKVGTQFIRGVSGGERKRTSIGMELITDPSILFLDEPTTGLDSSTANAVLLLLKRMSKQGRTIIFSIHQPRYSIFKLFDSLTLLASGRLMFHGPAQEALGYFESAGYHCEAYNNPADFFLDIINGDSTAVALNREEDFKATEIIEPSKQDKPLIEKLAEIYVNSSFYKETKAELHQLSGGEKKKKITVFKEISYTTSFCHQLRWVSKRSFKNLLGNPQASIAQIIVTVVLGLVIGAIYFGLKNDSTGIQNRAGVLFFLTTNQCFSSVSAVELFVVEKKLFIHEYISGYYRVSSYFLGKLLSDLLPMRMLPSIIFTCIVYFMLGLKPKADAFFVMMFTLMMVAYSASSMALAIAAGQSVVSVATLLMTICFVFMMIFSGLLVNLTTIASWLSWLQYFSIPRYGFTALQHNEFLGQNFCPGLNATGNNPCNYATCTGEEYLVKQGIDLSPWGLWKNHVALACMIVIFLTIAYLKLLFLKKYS

Sequence of ErbB2 insYVMA (HER2-YVMA, SEQ ID NO: 2) (P04626 with tags, fused parts or gaps INS775YVMA/P1170A limits assumed): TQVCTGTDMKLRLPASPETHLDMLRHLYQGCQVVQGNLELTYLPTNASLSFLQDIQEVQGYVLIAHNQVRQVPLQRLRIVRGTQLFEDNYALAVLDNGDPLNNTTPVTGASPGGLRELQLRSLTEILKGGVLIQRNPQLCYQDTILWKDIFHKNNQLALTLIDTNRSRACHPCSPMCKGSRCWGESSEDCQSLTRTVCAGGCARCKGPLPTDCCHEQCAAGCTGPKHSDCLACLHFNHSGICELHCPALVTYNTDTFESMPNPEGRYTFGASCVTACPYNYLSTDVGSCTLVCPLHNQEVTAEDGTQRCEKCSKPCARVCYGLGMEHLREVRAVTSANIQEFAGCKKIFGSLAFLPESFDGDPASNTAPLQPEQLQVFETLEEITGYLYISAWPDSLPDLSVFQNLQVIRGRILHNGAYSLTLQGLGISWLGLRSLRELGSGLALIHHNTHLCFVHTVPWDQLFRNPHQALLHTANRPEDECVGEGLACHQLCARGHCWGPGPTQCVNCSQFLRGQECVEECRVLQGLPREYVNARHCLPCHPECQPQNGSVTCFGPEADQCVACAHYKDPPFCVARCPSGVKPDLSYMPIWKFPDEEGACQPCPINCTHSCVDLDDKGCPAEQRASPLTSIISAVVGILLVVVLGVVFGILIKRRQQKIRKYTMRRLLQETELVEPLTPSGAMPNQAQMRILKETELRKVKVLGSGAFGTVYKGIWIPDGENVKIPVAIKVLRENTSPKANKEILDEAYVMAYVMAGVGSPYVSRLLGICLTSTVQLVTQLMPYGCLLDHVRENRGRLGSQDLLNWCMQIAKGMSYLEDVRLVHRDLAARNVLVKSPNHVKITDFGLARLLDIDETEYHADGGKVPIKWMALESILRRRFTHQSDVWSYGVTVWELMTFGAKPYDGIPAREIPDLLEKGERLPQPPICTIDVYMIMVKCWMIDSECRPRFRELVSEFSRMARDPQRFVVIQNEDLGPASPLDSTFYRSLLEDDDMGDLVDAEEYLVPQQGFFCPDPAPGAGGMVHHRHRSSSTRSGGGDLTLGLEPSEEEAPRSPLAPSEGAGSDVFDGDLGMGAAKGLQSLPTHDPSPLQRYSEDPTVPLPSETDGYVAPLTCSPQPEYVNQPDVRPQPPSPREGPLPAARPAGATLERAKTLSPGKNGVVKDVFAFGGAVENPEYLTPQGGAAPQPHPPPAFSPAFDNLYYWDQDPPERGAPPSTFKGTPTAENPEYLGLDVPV
T1 sequence (P08183 whole entry): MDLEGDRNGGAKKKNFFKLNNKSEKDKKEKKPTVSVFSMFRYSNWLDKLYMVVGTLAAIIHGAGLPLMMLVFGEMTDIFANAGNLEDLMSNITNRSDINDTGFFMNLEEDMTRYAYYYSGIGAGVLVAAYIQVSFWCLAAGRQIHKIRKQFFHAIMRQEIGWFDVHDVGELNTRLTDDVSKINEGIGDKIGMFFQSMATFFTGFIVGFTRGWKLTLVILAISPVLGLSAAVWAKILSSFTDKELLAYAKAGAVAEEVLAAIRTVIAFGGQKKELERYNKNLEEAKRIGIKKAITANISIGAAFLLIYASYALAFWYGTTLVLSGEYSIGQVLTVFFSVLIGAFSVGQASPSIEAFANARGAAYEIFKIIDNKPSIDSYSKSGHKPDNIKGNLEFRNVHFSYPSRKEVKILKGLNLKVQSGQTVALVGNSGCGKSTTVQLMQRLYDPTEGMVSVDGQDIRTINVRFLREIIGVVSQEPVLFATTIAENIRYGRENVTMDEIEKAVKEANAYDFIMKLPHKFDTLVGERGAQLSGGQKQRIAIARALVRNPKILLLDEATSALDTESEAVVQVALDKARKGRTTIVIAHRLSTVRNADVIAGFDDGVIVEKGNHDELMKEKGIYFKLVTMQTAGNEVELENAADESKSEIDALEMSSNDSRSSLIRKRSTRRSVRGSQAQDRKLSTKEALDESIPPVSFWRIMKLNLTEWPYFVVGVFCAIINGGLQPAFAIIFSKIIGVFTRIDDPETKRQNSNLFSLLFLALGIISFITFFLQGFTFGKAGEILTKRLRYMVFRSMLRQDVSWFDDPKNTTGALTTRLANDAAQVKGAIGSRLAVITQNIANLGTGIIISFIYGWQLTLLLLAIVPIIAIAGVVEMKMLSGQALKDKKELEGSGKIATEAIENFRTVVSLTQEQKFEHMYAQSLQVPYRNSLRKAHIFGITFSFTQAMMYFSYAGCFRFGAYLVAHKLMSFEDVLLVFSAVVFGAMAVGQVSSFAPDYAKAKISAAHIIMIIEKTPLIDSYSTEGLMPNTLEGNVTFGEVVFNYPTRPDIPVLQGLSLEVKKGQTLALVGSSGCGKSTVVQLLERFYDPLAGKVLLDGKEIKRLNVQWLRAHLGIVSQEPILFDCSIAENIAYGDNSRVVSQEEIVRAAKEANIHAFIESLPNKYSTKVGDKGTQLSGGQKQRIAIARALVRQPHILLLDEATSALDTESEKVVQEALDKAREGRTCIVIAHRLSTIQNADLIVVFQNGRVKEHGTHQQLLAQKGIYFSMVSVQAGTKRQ
Sequence of EGFR wild type (EGFR WT) (P00533 25-1210): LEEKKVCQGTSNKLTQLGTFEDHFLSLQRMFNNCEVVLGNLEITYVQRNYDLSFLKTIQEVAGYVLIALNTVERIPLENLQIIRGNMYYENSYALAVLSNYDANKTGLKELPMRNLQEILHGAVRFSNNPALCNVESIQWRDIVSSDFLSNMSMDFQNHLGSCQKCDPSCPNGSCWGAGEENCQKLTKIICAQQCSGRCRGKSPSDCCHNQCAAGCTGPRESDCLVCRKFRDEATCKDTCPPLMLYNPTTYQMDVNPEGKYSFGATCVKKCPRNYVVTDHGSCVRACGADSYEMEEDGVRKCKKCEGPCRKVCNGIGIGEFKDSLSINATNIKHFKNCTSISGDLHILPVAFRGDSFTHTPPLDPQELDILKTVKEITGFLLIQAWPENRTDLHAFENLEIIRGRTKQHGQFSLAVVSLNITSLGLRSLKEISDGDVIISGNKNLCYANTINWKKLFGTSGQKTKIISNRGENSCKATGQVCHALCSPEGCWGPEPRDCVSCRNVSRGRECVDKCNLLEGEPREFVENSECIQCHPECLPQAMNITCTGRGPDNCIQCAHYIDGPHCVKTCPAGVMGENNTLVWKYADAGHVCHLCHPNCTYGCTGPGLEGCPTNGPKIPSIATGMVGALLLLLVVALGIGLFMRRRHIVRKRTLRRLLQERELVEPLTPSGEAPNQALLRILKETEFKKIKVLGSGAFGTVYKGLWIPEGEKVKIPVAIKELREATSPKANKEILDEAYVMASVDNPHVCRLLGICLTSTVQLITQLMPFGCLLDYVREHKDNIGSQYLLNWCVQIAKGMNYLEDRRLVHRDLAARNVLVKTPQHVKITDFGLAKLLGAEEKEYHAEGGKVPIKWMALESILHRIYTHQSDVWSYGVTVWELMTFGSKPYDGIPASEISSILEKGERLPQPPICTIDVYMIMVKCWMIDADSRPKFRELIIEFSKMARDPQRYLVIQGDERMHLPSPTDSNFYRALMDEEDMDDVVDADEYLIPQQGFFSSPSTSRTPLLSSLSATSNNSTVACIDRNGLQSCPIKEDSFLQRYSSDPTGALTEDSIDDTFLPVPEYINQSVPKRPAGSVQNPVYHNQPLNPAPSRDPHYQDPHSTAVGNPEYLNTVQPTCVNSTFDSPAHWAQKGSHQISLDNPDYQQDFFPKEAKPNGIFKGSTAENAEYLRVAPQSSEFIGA

Row | SMILES | IC50 ([1]; read-out: Assay 1 IC50) | IC50 (ErbB2 WT) | IC50 (EGFR) | IC50 [2] | IC50 (EGFR wild type (EGFR WT)) | efflux ratio at 2 h, 1 μM (MDR1 (P-gp) [3]) | efflux ratio at 2 h, 1 μM (MDR1 (P-gp) [4]) | efflux ratio at 2 h, 1 μM (BCRP) | IC50 ([1]; Assay 1 IC50 (nM))
1 | Cc1c(Oc2ccc3c(c2)ncn3C)ccc(Nc2ncnc3cnc(N4CC[C@](C)(O)C4)nc23)c1F [Example 97, (S)-1-(8-((2-fluoro-3-methyl-4-((1-methyl-1H-benzo[d]imidazol-5-yl)oxy)phenyl)amino)pyrimido[5,4-d]pyrimidin-2-yl)-3-methylpyrrolidin-3-ol] | 14.2 nM | 0.031 µM | ≥ 10 µM | 0.0475 µM | ≥ 5 µM | 2 | – | – | –
2 | Cc1cc(Nc2ncnc3cnc(-c4cnsc4)nc23)ccc1Oc1ccc2c(c1)ncn2C [Example 228] | 115 nM | 0.272 µM | ≥ 10 µM | 0.0242 µM | ≥ 5 µM | – | 1.1 | 1 | –
3 | Cc1cc(Nc2ncnc3cnc(N(C)CC(C)(C)O)nc23)ccc1Oc1ccc2c(c1)ncn2C [Example 163, 2-methyl-1-(methyl(8-((3-methyl-4-((1-methyl-1H-benzo[d]imidazol-5-yl)oxy)phenyl)amino)pyrimido[5,4-d]pyrimidin-2-yl)amino)propan-2-ol] | 28.2 nM | 0.0368 µM | 4.48 µM | 0.0216 µM | ≥ 5 µM | – | 1.8 | 2.7 | –
4 | [2H]c1nc(Nc2ccc(Oc3ccc4c(c3)ncn4C)c(C)c2)c2nc(N3CCOCC3)nc([2H])c2n1 [Example 68, N-(3-methyl-4-((1-methyl-1H-benzo[d]imidazol-5-yl)oxy)phenyl)-6-morpholinopyrimido[5,4-d]pyrimidin-2,8-d2-4-amine] | 10.2 nM | 0.0163 µM | 8.23 µM | 0.0107 µM | ≥ 5 µM | – | 1.8 | 0.9 | –
5 | Cn1cnc2cc(Oc3ccc(Nc4ncnc5cnc(N6CCOCC6)nc45)cc3F)ccc21.O=C(O)C(F)(F)F [Example 80, N-(3-fluoro-4-((1-methyl-1H-benzo[d]imidazol-5-yl)oxy)phenyl)-6-morpholinopyrimido[5,4-d]pyrimidin-4-amine 2,2,2-trifluoroacetate] | – | 0.431 µM | ≥ 10 µM | 0.0471 µM | ≥ 5 µM | – | 2.1 | 2.4 | 35.6 nM
6 | Cc1cc(Nc2ncnc3cnc(NCC(F)F)nc23)ccc1Oc1cc(F)c2c(c1)ncn2C [Example 207, N2-(2,2-difluoroethyl)-N8-(4-((7-fluoro-1-methyl-1H-benzo[d]imidazol-5-yl)oxy)-3-methylphenyl)pyrimido[5,4-d]pyrimidine-2,8-diamine] | 22.4 nM | 0.0451 µM | 1.72 µM | 0.0169 µM | ≥ 5 µM | – | 1.6 | 1.7 | –
7 | Cc1cc(Nc2ncnc3cnc(N(C)C[C@H](C)O)nc23)ccc1Oc1ccc2c(c1)ncn2C [Example 195, (S)-1-(methyl(8-((3-methyl-4-((1-methyl-1H-benzo[d]imidazol-5-yl)oxy)phenyl)amino)pyrimido[5,4-d]pyrimidin-2-yl)amino)propan-2-ol] | 17.3 nM | – | 7.29 µM | 0.0101 µM | ≥ 5 µM | 4.6 | – | – | –
8 | Cc1cc(Nc2ncnc3cnc(N(C)CC4CCO4)nc23)ccc1Oc1ccc2c(c1)ncn2C (stereo not shown) [Example 350] | 40 nM | 0.0839 µM | ≥ 10 µM | 0.0263 µM | ≥ 5 µM | – | 1.9 | 3.5 | –
9 | Cc1cc(Nc2ncnc3cnc(N4C[C@@H]5C[C@H]4CO5)nc23)ccc1Oc1ccc2c(c1)ncn2C [Example 274] | 30.7 nM | 0.0388 µM | 3.25 µM | 0.0121 µM | ≥ 5 µM | – | 2.4 | 1.7 | –
10 | Cc1cc(Nc2ncnc3cnc(N4C[C@H]5C[C@@H]4CO5)nc23)ccc1Oc1cc(F)c2c(c1)ncn2C [Example 204, 6-((1R,4R)-2-oxa-5-azabicyclo[2.2.1]heptan-5-yl)-N-(4-((7-fluoro-1-methyl-1H-benzo[d]imidazol-5-yl)oxy)-3-methylphenyl)pyrimido[5,4-d]pyrimidin-4-amine] | 31.9 nM | 0.108 µM | 8.06 µM | 0.0131 µM | ≥ 5 µM | – | 1.3 | 1.2 | –
11 | Cc1cc(Nc2ncnc3cnc(N4CCOCC4)nc23)ccc1Oc1cc(F)c2c(c1)ncn2C.O=C(O)C(F)(F)F [Example 70, N-(4-((7-fluoro-1-methyl-1H-benzo[d]imidazol-5-yl)oxy)-3-methylphenyl)-6-morpholinopyrimido[5,4-d]pyrimidin-4-amine 2,2,2-trifluoroacetate] | – | 0.0703 µM | ≥ 10 µM | 0.0049 µM | ≥ 5 µM | – | 1.8 | 1 | 106 nM
12 | Cc1cc(Nc2ncnc3cnc(N4CC5C(C4)C5(F)F)nc23)ccc1Oc1ccc2c(c1)ncn2C (stereo not shown) [Example 234] | 104 nM | 0.165 µM | ≥ 10 µM | 0.0391 µM | ≥ 5 µM | – | 1.8 | 5.2 | –
13 | Cc1cc(Nc2ncnc3cnc(N4CCCC4)nc23)ccc1Oc1ccc2c(c1)ncn2C [Example 222] | 34.4 nM | 0.0412 µM | ≥ 10 µM | 0.0389 µM | ≥ 5 µM | – | 1 | 1.6 | –
14 | Cc1cc(Nc2ncnc3cnc(N4CCOCC4)nc23)c(F)cc1Oc1ccc2c(c1)ncn2C.O=C(O)C(F)(F)F [Example 78, N-(2-fluoro-5-methyl-4-((1-methyl-1H-benzo[d]imidazol-5-yl)oxy)phenyl)-6-morpholinopyrimido[5,4-d]pyrimidin-4-amine 2,2,2-trifluoroacetate] | – | 0.422 µM | ≥ 10 µM | 0.0367 µM | ≥ 5 µM | – | 1.3 | 1.1 | 60.4 nM
15 | Cc1cc(Nc2ncnc3cnc(N4C[C@@H]5CC[C@H]4CO5)nc23)ccc1Oc1ccc2c(c1)ncn2C [Example 53, 6-((1S,4S)-2-oxa-5-azabicyclo[2.2.2]octan-5-yl)-N-(3-methyl-4-((1-methyl-1H-benzo[d]imidazol-5-yl)oxy)phenyl)pyrimido[5,4-d]pyrimidin-4-amine] | 25 nM | 0.0752 µM | ≥ 10 µM | 0.0427 µM | ≥ 5 µM | – | 1.7 | 1.6 | –
16 | Cc1cc(Nc2ncnc3cnc(N4CC[C@@H](C(F)F)C4)nc23)ccc1Oc1ccc2c(c1)ncn2C [Example 253] | 93 nM | 0.171 µM | ≥ 10 µM | 0.0393 µM | ≥ 5 µM | – | 1.2 | 2 | –
17 | Cc1cc(Nc2ncnc3cnc(N(C)C4CC4)nc23)ccc1Oc1ccc2c(c1)ncn2C [Example 31, N2-cyclopropyl-N2-methyl-N8-(3-methyl-4-((1-methyl-1H-benzo[d]imidazol-5-yl)oxy)phenyl)pyrimido[5,4-d]pyrimidine-2,8-diamine] | 117 nM | 0.158 µM | ≥ 10 µM | 0.0233 µM | ≥ 5 µM | – | 1.3 | 1.4 | –
18 | Cc1cc(Nc2ncnc3cnc(N4C5CCC4COC5)nc23)ccc1Oc1ccc2c(c1)ncn2C [Example 59, 6-(3-oxa-8-azabicyclo[3.2.1]octan-8-yl)-N-(3-methyl-4-((1-methyl-1H-benzo[d]imidazol-5-yl)oxy)phenyl)pyrimido[5,4-d]pyrimidin-4-amine] | 29.7 nM | 0.0443 µM | ≥ 10 µM | 0.0235 µM | ≥ 5 µM | – | 2 | 7.4 | –
19 | Cc1cc(Nc2ncnc3cnc(N4CCO[C@H]5C[C@H]54)nc23)ccc1Oc1ccc2c(c1)ncn2C (single isomer, unassigned) [Example 60a] | 18.4 nM | 0.0289 µM | 8.28 µM | 0.016 µM | ≥ 5 µM | – | 1.8 | 1.2 | –
